Measured values reported in publication PMC12284850, “In Silico Design of Antimicrobial Peptides against Carbapenem-Resistant Infections with Enhanced Activity by Nanoformulation” (ACS Applied Bio Materials, 2025).
Values after ≈ are worked out from the molar mass of the structure shown. Read-outs that look alike come from different tables or passages of the source. Where a SMILES comes first, the peptide text is derived from it. Bridges are numbered along the chain shown (N, C = ends). [ ]: non-standard residue; d: D form. The star is where a group is joined. X1 = CC[C@H](C)CCCCC(=O)*; Dab = NCC[C@H](N)C(=O)O

Key:
HK-2 cells = experiment: Cytotoxicity assay (MTT); assay type: cell-based
Method: (§1) We tested the cytotoxicity of several antibiotic compounds, including peptides and nanoparticles, on the human embryonic kidney cell lines HEK-293, HK-2, and […]. The cells were stored in DMEM medium and incubated at 37 °C with 5% CO2 in a humidifying environment. Using the MTT (methylthiazolyldiphenyl-tetrazolium bromide) test, cell viability was evaluated. Following a 5 × 10^3 cell/mL seeding in 96-well plates, the cells were exposed to 100 μL of samples at varying concentrations (12.5–200 μM) during 72 h at 37 °C. Later, each well is loaded with MTT solution (5 mg/mL in PBS) at a volume of 10 μL. The plates were left in the dark for 4 h. After forming formazan crystals due to the action of mitochondrial reductases in living cells, the crystals were dissolved using a solubilizing solution (pH 4.7, 40% dimethylformamide, 2% glacial acetic acid, and 16% sodium dodecyl sulfate) were shaken at 150 rpm and incubated for an hour at 37 °C. Using graphical plot analysis, the IC50 value–the concentration that results in 50% cell death–was obtained by measuring the absorbance of the dissolved formazan at 570 nm. The average of three independent tests, each carried out in triplicate, was used to display the results.

E. coil ATCC25922 = assay type: cell-based, E. coli
Method: (§2) The broth microdilution procedure involves preparing CAMHB broth, a bacterial suspension adjusted to McFarland 0.5 (1.5 × 10^8 CFU/mL) and diluted 200×, and a drug solution at 2× the final target concentration. To achieve a 400× final bacterial dilution, add 100 μL of the drug at different doses to a 96-well plate, then 100 μL of the diluted bacterial culture. Measure the initial absorbance (0 h), incubate at 37 °C for 16–18 h, and measure the final absorbance. With no change in absorbance, the MIC signifies the absence of bacterial growth.

[1] = tested on: A. baumannii ATCC BAA-747; assay type: cell-based
Method: as §2

A. baumannii ATCC19606 [2] = assay type: cell-based
Method: as §2

E. faecalis ATCC 29212 = assay type: cell-based
Method: as §2

[3] = tested on: K. pneumoniae ATCC BAA-1705; assay type: cell-based
Method: as §2

[4] = tested on: K. pneumoniae ATCCC700603; assay type: cell-based
Method: as §2

P. aeruginosa ATCC27853 = assay type: cell-based
Method: as §2

S. aureus ATCC25923 = assay type: cell-based
Method: as §2

S. aureus ATCC29213 = assay type: cell-based
Method: as §2

S. aureus ATCC33592 = assay type: cell-based
Method: as §2

S. aureus ATCC700698 = assay type: cell-based
Method: as §2

A. baumannii ATCC19606 [5] = assay type: cell-based; conditions: 37 °C, 18 h
Excerpt: The antimicrobial mechanism of colistin against bacteria has been attributed to the interaction between positively charged colistin and negatively charged outer membrane. Colistin could be displaced by divalent ions, such as calcium ions (Ca^2+) and magnesium (Mg^2+) in a competitively way. Moreover, elevated levels of divalent cations can enhance membrane rigidity, thereby reducing drug penetration and overall efficacy. To investigate the antimicrobial mechanism of T2–02, the competitive assays using divalent calcium ion were conducted. The elevated MICs of colistin were observed by adding Ca^2+ (2 to 32 μg/mL, Table S4).
As previously reported, the MIC values of T2–02 in conjunction with different chemical agents was estimated using the broth microdilution technique. Different concentrations of T2–02 were combined with Ca2+ separately, and the effect of chemical agents on T2–02 were tracked by observing variations in their MIC values. Each solution was added to a 96-well plate at the proper concentration in 100 μL volume. Next, 100 μL of the modified bacterial solution was added to each well. The absorbance was measured after incubation at 37 °C for 0 and 18 h.

[6] = tested on: human red blood cells (RBCs); experiment: Hemolysis assay; assay type: cell-based; conditions: at 256 μg/mL, 2% hematocrit, 1 h, 37 °C, absorbance 540 nm, triplicate
Method: 5 . Hemolysis profiles of colistin, free T2–02, and T2–02-loaded liposomes. (A) Colistin, (B) free T2–02 peptide, and (C) T2–02-loaded liposomes (T2–02 Lipo) were incubated with human red blood cells (RBCs) at various concentrations (0–256 μg/mL) for 1 hour at 37 °C.
The hemolytic potential of colistin, T2–02, and T2–02 Lipo were assessed using a modified erythrocyte lysis assay. Briefly, fresh erythrocytes were washed twice with phosphate-buffered saline (PBS) and resuspended in 5% glucose solution to prepare a 2% hematocrit suspension. Aliquots (100 μL) of each test compound at varying concentrations were incubated with the erythrocyte suspension at 37 °C with gentle agitation (120 rpm) for 1 h. After incubation, samples were centrifuged at 700 × g for 10 min, and the supernatant was transferred to a 96-well microplate. The release of hemoglobin was quantified by measuring the absorbance at 540 nm. The percentage of hemolysis was calculated as follows: Hemolysis (%) = (OD of test sample – OD of negative control)/(OD of positive control-OD of negative control) × 100%. Each experiment was performed in triplicate, and data were expressed as mean ± standard deviation (SD).

HEK293 = assay type: cell-based, human; conditions: 72 h
Method: as §1

MIC (E. coil ATCC25922)	MIC [1]	MIC (A. baumannii ATCC19606 [2])	MIC (E. faecalis ATCC 29212)	MIC [3]	MIC [4]	MIC (P. aeruginosa ATCC27853)	MIC (S. aureus ATCC25923)	MIC (S. aureus ATCC29213)	MIC (S. aureus ATCC33592)	MIC (S. aureus ATCC700698)	Compound	Cytotoxicity HK-2 related to PMB (HK-2 cells)	Antibacterial activity (MIC), 20 mM CaCl2 (A. baumannii ATCC19606 [5]; in the presence of 20 mM CaCl2, broth microdilution)	Antibacterial activity (MIC), Control (A. baumannii ATCC19606 [5]; without CaCl2, broth microdilution)	Cytotoxicity HK-2 related to PMB (HK-2 cells; ratio of HK-2 IC50 to that of polymyxin B)	Hemolysis [6]	IC50 HEK293 (HEK293)
											SPR 206 [reference compound]	11.6					
>512 µg/mL	64 µg/mL (≈ 25.7 µM)	64 µg/mL (≈ 25.7 µM)	>512 µg/mL	>512 µg/mL	>512 µg/mL	64 µg/mL (≈ 25.7 µM)	>512 µg/mL	512 µg/mL (≈ 205 µM)	>512 µg/mL	>512 µg/mL	CC[C@H](C)[C@H](NC(=O)[C@H](CCC(=O)O)NC(=O)[C@H](CC(N)=O)NC(=O)[C@H](CC(C)C)NC(=O)[C@H](C)NC(=O)[C@H](C)NC(=O)[C@H](CCCCN)NC(=O)CNC(=O)[C@H](CCCNC(=N)N)NC(=O)[C@H](CCCNC(=N)N)NC(=O)[C@H](CCCCN)NC(=O)[C@H](CC(C)C)NC(=O)[C@H](CC(C)C)NC(=O)[C@H](CCCNC(=N)N)NC(=O)[C@H](CCCCN)NC(=O)[C@H](Cc1c[nH]c2ccccc12)NC(=O)[C@H](CC(C)C)NC(=O)[C@H](C)N)C(=O)N[C@@H](CC(N)=O)C(=O)N[C@@H](CCC(N)=O)C(=O)N[C@@H](CC(C)C)C(=O)O [T2–01] (H-ALWKRLLKRRGKAALNEINQL-OH)						
											CC[C@H](C)CCCCC(=O)N[C@@H](CCN)C(=O)N[C@H](C(=O)N[C@@H](CCN)C(=O)N[C@H]1CCNC(=O)[C@H]([C@@H](C)O)NC(=O)[C@H](CCN)NC(=O)[C@H](CCN)NC(=O)[C@H](CC(C)C)NC(=O)[C@@H](CC(C)C)NC(=O)[C@H](CCN)NC1=O)[C@@H](C)O [Colistin] (X1-[Dab]T[Dab][Dab][Dab][dL]L[Dab][Dab]T; lactam 4-C (inferred); N-terminus assumed)		32 µg/mL	2 µg/mL	2.6	~45%	
>1024 µg/mL	8 µg/mL (≈ 3.44 µM)	8 µg/mL (≈ 3.44 µM)	1024 µg/mL (≈ 441 µM)	>1024 µg/mL	>512 µg/mL	8 µg/mL (≈ 3.44 µM)	1024 µg/mL (≈ 441 µM)	>512 µg/mL	>512 µg/mL	>512 µg/mL	CC[C@H](C)[C@H](NC(=O)[C@H](CCC(=O)O)NC(=O)[C@H](CC(N)=O)NC(=O)[C@H](CC(C)C)NC(=O)[C@H](C)NC(=O)[C@H](C)NC(=O)[C@H](CCCCN)NC(=O)CNC(=O)[C@H](C)NC(=O)[C@H](CC(N)=O)NC(=O)[C@H](CCCCN)NC(=O)[C@H](CC(C)C)NC(=O)[C@@H](NC(=O)[C@H](CC(=O)O)NC(=O)[C@H](CCCCN)NC(=O)[C@H](Cc1c[nH]c2ccccc12)NC(=O)[C@H](CC(C)C)NC(=O)[C@H](C)N)[C@@H](C)CC)C(=O)N[C@@H](CC(N)=O)C(=O)N[C@@H](CCC(N)=O)C(=O)N[C@@H](CC(C)C)C(=O)O [T2] (H-ALWKDILKNAGKAALNEINQL-OH)						>1024 µg/mL
64 µg/mL (≈ 20.1 µM)	32 µg/mL (≈ 10.1 µM)	32 µg/mL (≈ 10.1 µM)	128 µg/mL (≈ 40.3 µM)	128 µg/mL (≈ 40.3 µM)	128 µg/mL (≈ 40.3 µM)	32 µg/mL (≈ 10.1 µM)	128 µg/mL (≈ 40.3 µM)	>512 µg/mL	>512 µg/mL	>512 µg/mL	CC[C@H](C)[C@H](NC(=O)[C@H](CC(=O)O)NC(=O)[C@H](CCCCN)NC(=O)[C@H](Cc1c[nH]c2ccccc12)NC(=O)[C@H](CC(C)C)NC(=O)[C@H](C)N)C(=O)N[C@@H](CC(C)C)C(=O)N[C@@H](CCCCN)C(=O)N[C@@H](CC(N)=O)C(=O)N[C@@H](C)C(=O)NCC(=O)N[C@@H](CCCCN)C(=O)N[C@@H](C)C(=O)N[C@@H](C)C(=O)N[C@@H](CC(C)C)C(=O)N[C@@H](CC(N)=O)C(=O)N[C@@H](CCC(=O)O)C(=O)N[C@H](C(=O)N[C@@H](CC(N)=O)C(=O)N[C@@H](CCC(N)=O)C(=O)N[C@@H](CC(C)C)C(=O)N[C@H](C(=O)N[C@@H](CC(N)=O)C(=O)NCC(=O)N[C@@H](CCCNC(=N)N)C(=O)NCC(=O)N[C@@H](CC(C)C)C(=O)N[C@@H](CCCCN)C(=O)N[C@@H](CCCCN)C(=O)O)C(C)C)[C@@H](C)CC [seq ID-1, reference compound] (H-ALWKDILKNAGKAALNEINQLVNGRGLKK-OH)						
